The target in the first assay is VEGFR-2 kinase (Homo sapiens (Human), UniProt P35968). The experiment in a line: Test of small molecule compounds for inhibiting the activity of VEGFR-2 kinase. Format: biochemical. Particulars: class symbols A-D. The procedure: Test of Small Molecule Compounds for Inhibiting the Activity of VEGFR-2 Kinase
Chain of VEGFR-2 kinase (P35968 20-1356): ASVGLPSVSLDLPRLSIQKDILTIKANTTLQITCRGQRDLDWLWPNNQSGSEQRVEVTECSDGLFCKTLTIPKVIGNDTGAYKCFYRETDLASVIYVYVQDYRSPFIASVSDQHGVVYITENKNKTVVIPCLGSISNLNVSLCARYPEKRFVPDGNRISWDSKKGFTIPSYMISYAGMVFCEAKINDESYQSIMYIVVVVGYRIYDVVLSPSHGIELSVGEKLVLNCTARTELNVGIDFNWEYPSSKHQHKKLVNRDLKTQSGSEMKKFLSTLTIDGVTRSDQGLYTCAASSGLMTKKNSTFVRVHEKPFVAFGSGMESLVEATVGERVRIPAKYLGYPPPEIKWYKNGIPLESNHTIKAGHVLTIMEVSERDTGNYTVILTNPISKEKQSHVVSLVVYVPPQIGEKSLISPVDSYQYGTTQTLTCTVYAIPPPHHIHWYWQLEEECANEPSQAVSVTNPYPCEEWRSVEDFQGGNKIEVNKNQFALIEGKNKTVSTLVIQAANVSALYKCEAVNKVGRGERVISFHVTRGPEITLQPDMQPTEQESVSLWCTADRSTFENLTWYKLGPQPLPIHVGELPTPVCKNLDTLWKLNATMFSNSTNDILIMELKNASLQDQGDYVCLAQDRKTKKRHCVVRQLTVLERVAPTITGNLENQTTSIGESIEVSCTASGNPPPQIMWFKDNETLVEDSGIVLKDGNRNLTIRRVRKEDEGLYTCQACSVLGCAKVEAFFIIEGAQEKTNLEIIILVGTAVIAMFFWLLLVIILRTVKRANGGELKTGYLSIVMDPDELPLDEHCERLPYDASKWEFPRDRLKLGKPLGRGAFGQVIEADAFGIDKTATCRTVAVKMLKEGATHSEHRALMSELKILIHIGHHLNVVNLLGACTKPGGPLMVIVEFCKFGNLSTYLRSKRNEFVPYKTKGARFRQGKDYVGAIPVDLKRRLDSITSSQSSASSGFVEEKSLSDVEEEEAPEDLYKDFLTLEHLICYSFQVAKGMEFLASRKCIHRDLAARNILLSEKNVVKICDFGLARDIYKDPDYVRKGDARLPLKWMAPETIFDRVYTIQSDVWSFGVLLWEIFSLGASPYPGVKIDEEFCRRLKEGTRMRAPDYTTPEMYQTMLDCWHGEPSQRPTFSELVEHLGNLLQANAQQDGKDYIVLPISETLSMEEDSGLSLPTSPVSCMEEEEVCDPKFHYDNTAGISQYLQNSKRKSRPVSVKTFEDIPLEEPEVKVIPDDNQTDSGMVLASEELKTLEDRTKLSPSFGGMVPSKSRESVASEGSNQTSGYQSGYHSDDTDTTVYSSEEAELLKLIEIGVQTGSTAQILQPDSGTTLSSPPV
The test was carried out as follows:
2. 2.5 μl of the gradient-diluted compounds was taken with a transfer pipette to a 384-well plate,
3. Addition of enzyme: 5 μl of 2×VEGFR-2 kinase was taken with a transfer pipette to the corresponding reaction well of the 384-well plate, which was mixed and pre-reacted at room temperature for 30 min,
5. Negative control: 2.5 μl/well 4× substrate/ATP Mix and 7.5 μl 1× Kinase Assay Buffer were added to the wells of the 384-well plate,
Positive control: 2.5 μl/well 4× substrate/ATP Mix, 2.5 μl/well 1× Kinase Assay Buffer containing 4% DMSO, and 5 μl/well 2×VEGFR-2 solution were added to the 384-well plate. The final concentration of DMSO in the reaction system is […],
6. The mixture was mixed well and then centrifuged and reacted at room temperature in dark for 60 min,
9. The 384-well plate was placed into the Envision plate reader and the signal was detected using the appropriate program,
Chain of B-RAF (P15056 whole entry): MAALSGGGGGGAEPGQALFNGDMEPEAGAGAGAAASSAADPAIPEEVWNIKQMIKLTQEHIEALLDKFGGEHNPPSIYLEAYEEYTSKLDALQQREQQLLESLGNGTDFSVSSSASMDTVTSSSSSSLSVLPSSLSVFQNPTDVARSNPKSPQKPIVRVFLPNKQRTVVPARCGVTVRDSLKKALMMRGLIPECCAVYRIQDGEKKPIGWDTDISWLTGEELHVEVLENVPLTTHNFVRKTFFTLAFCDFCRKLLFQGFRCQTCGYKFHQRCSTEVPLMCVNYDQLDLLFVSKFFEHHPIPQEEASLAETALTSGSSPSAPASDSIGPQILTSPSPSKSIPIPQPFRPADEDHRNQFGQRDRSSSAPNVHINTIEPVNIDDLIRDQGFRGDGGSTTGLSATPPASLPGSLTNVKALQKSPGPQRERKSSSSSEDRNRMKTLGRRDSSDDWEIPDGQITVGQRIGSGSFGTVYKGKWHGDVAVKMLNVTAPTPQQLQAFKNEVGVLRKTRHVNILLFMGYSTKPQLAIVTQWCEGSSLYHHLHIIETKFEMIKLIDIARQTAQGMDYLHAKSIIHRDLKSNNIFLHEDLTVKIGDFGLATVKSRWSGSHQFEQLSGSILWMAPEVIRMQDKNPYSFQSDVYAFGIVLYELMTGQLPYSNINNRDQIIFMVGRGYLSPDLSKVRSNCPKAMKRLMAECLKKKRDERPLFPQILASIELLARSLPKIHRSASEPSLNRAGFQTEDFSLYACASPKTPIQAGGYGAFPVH
Regarding `COc1cc2ncnc(Nc3ccc(NC(=O)Nc4cccc(S(C)(=O)=O)c4)c(Cl)c3)c2c2c1OCCO2` [Example 17, 1-(2-chloro-4-((5-methoxy-2,3-dihydro-[1,4]dioxino[2,3-f]quinazolin-10-yl)amino)phenyl)-3-(3-methylsulfonylphenyl)urea], the half-maximal inhibitory concentration (IC50) (in general, the concentration at which inhibition is half-maximal) was below 50 nM. Consider `COCCOc1cc2nccc(Oc3ccc(NC(=O)Nc4ccc(Cl)c(C(F)(F)F)c4)cc3)c2c2c1OCCO2` [Example 93, 1-(4-chloro-3-(trifluoromethyl)phenyl)-3-(4-((5-(2-methoxyethoxy)-2,3-dihydro-[1,4]dioxino[2,3-f]quinoline-10-yl)oxy)phenyl)urea], for which the half-maximal inhibitory concentration (IC50) lay in the range of 50 to 500 nM. Regarding `COc1cc2ncnc(Nc3ccc(NC(=O)Nc4cc(C)no4)c(Cl)c3)c2c2c1OCCO2` [Example 8, 1-(2-chloro-4-((5-methoxy-2,3-dihydro-[1,4]dioxino[2,3-f]quinazolin-10-yl)amino)phenyl)-3-(3-methylisoxazol-5-yl)urea], the half-maximal inhibitory concentration (IC50) fell in the range of 50 to 500 nM. `COCCOc1cc2ncnc(Oc3ccc(NC(=O)Nc4ccnc(OC)c4)cc3Cl)c2c2c1OCCO2` [Example 53, 1-(3-chloro-4-((5-(2-methoxyethoxy)-2,3-dihydro-[1,4]dioxino[2,3-f]quinazolin-10-yl)oxy)phenyl)-3-(2-methoxypyridin-4-yl)urea] displayed an IC50 below 50 nM. Compound `CN(C)CCOc1cc2ncnc(Nc3ccc(NC(=O)NC4CC4)c(Cl)c3)c2c2c1OCCO2` [Example 87] showed an IC50 of 50 to 500 nM. `O=C(Nc1ccc(Oc2ncnc3cc(OCCCN4CCS(=O)(=O)CC4)c4c(c23)OCCO4)cc1)Nc1cc(C(F)(F)F)ccc1F` [Example 81, 1-(4-((5-(3-(1,1-dioxidothiomorpholino)propoxy)-2,3-dihydro-[1,4]dioxino[2,3-f]quinazolin-10-yl)oxy)phenyl)-3-(2-fluoro-5-(trifluoromethyl)phenyl)urea]: the IC50 was below 50 nM. For `O=C(Nc1ccc(Cl)c(C(F)(F)F)c1)Nc1ccc(Oc2ncnc3cc(OCCCN4CCOCC4)c4c(c23)OCCO4)cc1F` [Example 69, 1-(4-chloro-3-(trifluoromethyl)phenyl)-3-(2-fluoro-4-((5-(3-morpholinopropoxy)-2,3-dihydro-[1,4]dioxino[2,3-f]quinazolin-10-yl)oxy)phenyl)urea], the concentration for half-maximal inhibition (IC50) is below 50 nM. With `CN1CCN(CCOc2cc3ncnc(Nc4ccc(NC(=O)NC5CC5)c(Cl)c4)c3c3c2OCCO3)CC1` [Example 83, 1-(2-chloro-4-((5-(2-(1-methylpiperazin-4-yl)ethoxy)-2,3-dihydro-[1,4]dioxino[2,3-f]quinazolin-10-yl)amino)phenyl)-3-cyclopropylurea], the IC50 was in the range of 50 to 500 nM. Consider `COc1cc2ncnc(Nc3ccc(NC(=O)NC4CC4)cc3)c2c2c1OCCO2` [Example 1, 1-(4-((5-methoxy-2,3-dihydro-[1,4]dioxino[2,3-f]quinazolin-10-yl)amino)phenyl)-3-cyclopropylurea], for which the half-maximal inhibitory concentration (IC50) fell in the range of 50 to 500 nM.

Compound `CSCCOc1cc2ncnc(Oc3ccc(NC(=O)NC4CC4)c(Cl)c3)c2c2c1OCCO2` [Example 85, 1-(2-chloro-4-(((5-(2-methylthio)ethoxy)-2,3-dihydro-[1,4]dioxino[2,3-f]quinazolin-10-yl)oxy)phenyl)-3-cyclopropylurea] yielded a half-inhibitory concentration (IC50) of 500 to 5000 nM. In the case of `COc1cc2ncnc(Nc3ccc(NC(=O)Nc4ccccn4)c(Cl)c3)c2c2c1OCCO2` [Example 5, 1-(2-chloro-4-((5-methoxy-2,3-dihydro-[1,4]dioxino[2,3-f]quinazolin-10-yl)amino)phenyl)-3-(pyridin-2-yl)urea], the IC50 is above 5000 nM. `O=C(Nc1ccc(Oc2ncnc3cc(OCCN4CCCC4)c4c(c23)OCCO4)cc1)Nc1cc(C(F)(F)F)ccc1F` [Example 76, 1-(2-fluoro-5-(trifluoromethyl)phenyl)-3-(4-((5-(2-(tetrahydropyrrol-1-yl)ethoxy)-2,3-dihydro-[1,4]dioxino[2,3-f]quinazolin-10-yl)oxy)phenyl)urea] returned an IC50 above 5000 nM.

`COCCOc1cc2ncnc(Oc3ccc(NC(=O)Nc4cc(C(F)(F)F)ccc4F)c(F)c3)c2c2c1OCCO2` [Example 57, 1-(2-fluoro-4-((5-(2-methoxyethoxy)-2,3-dihydro-[1,4]dioxino[2,3-f]quinazolin-10-yl)oxy)phenyl)-3-(2-fluoro-5-(trifluoromethyl)phenyl)urea] registered a half-inhibitory concentration (IC50) below 50 nM. Compound `COc1cc2ncnc(Nc3ccc(NC(=O)NC(C)C)c(Cl)c3)c2c2c1OCCO2` [Example 9, 1-(2-chloro-4-((5-methoxy-2,3-dihydro-[1,4]dioxino[2,3-f]quinazolin-10-yl)amino)phenyl)-3-isopropylurea] showed an IC50 of 50 to 500 nM.

Compound `COCCOc1cc2ncnc(Nc3ccc(NC(=O)Nc4cc(C)no4)c(Cl)c3)c2c2c1OCCO2` [Example 39, 1-(2-chloro-4-((5-(2-methoxyethoxy)-2,3-dihydro-[1,4]dioxino[2,3-f]quinazolin-10-yl)amino)phenyl)-3-(3-methylisoxazol-5-yl)urea] yielded an IC50 below 50 nM.

`COc1cc2ncnc(Nc3ccc(NC(=O)Nc4ccc(C(F)(F)F)cc4F)c(Cl)c3)c2c2c1OCCO2` [Example 12, 1-(2-chloro-4-((5-methoxy-2,3-dihydro-[1,4]dioxino[2,3-f]quinazolin-10-yl)amino)phenyl)-3-(2-fluoro-4-(trifluoromethyl)phenyl)urea]: the IC50 was below 50 nM.

`COCCOc1cc2ncnc(Nc3ccc(NC(=O)Nc4ccc(C(F)(F)F)cc4F)c(Cl)c3)c2c2c1OCCO2` [Example 43, 1-(2-chloro-4-((5-(2-methoxyethoxy)-2,3-dihydro-[1,4]dioxino[2,3-f]quinazolin-10-yl)amino)phenyl)-3-(2-fluoro-4-(trifluoromethyl)phenyl)urea] registered an IC50 below 50 nM. With `COc1cc2ncnc(Nc3ccc(NC(=O)Nc4ccc(F)cc4)c(Cl)c3)c2c2c1OCCO2` [Example 7, 1-(2-chloro-4-((5-methoxy-2,3-dihydro-[1,4]dioxino[2,3-f]quinazolin-10-yl)amino)phenyl)-3-(4-fluorophenyl)urea], the IC50 was below 50 nM. Regarding `COc1cccc(NC(=O)Nc2ccc(Nc3ncnc4cc(OC)c5c(c34)OCCO5)cc2)c1` [Example 3, 1-(4-((5-methoxy-2,3-dihydro-[1,4]dioxino[2,3-f]quinazolin-10-yl)amino)phenyl)-3-(3-methoxyphenyl)urea], the concentration for half-maximal inhibition (IC50) lay within 50 to 500 nM.

The compound `COCCOc1cc2ncnc(Oc3ccc(NC(=O)Nc4cccc(OC)c4)cc3Cl)c2c2c1OCCO2` [Example 51, 1-(3-chloro-4-((5-(2-methoxyethoxy)-2,3-dihydro-[1,4]dioxino[2,3-f]quinazolin-10-yl)oxy)phenyl)-3-(3-methoxyphenyl)urea] came in with a half-inhibitory concentration (IC50) below 50 nM. As for `COCCOc1cc2nccc(Oc3ccc(NC(=O)Nc4ccc(Cl)c(C(F)(F)F)c4)cc3F)c2c2c1OCCO2` [Example 94, 1-(4-chloro-3-(trifluoromethyl)phenyl)-3-(3-fluoro-4-((5-(2-methoxyethoxy)-2,3-dihydro-[1,4]dioxino[2,3-f]quinoline-10-yl)oxy)phenyl)urea], the IC50 is 50 to 500 nM. In turn, `CCOc1cc2ncnc(Oc3ccc(NC(=O)Nc4cc(C(F)(F)F)ccc4F)cc3)c2c2c1OCCO2` [Example 77, 1-(4-((5-ethoxy-2,3-dihydro-[1,4]dioxino[2,3-f]quinazolin-10-yl)oxy)phenyl)-3-(2-fluoro-5-(trifluoromethyl)phenyl)urea] registered an IC50 below 50 nM. On to `COCCOc1cc2ncnc(Nc3ccc(NC(=O)Nc4ccccc4)c(Cl)c3)c2c2c1OCCO2` [Example 37, 1-(2-chloro-4-((5-(2-methoxyethoxy)-2,3-dihydro-[1,4]dioxino[2,3-f]quinazolin-10-yl)amino)phenyl)-3-phenylurea], for which the concentration for half-maximal inhibition (IC50) was below 50 nM.

Regarding `COCCCCCCOc1cc2ncnc(Oc3ccc(NC(=O)NC4CC4)c(Cl)c3)c2c2c1OCCO2` [Example 88], the half-maximal inhibitory concentration (IC50) was below 50 nM.

The compound `COc1cc2nccc(Oc3ccc(NC(=O)Nc4ccc(Cl)c(C(F)(F)F)c4)c(F)c3)c2c2c1OCCO2` [Example 92, 1-(4-chloro-3-(trifluoromethyl)phenyl)-3-(2-fluoro-4-((5-methoxy-2,3-dihydro-[1,4]dioxino[2,3-f]quinoline-10-yl)oxy)phenyl)urea] had a half-maximal inhibitory concentration (IC50) of 50 to 500 nM. Still for that read-out and setting: next, `COCCOc1cc2ncnc(Nc3ccc(NC(=O)NC4CC4)c(Cl)c3)c2c2c1OCCO2` [Example 34, 1-(2-chloro-4-((5-(2-methoxyethoxy)-2,3-dihydro-[1,4]dioxino[2,3-f]quinazolin-10-yl)amino)phenyl)-3-cyclopropylurea]: below 50 nM; `O=C(Nc1ccc(Oc2ncnc3cc(OCCCN4CCOCC4)c4c(c23)OCCO4)cc1)Nc1ccc(F)c(C(F)(F)F)c1` [Example 75, 1-(4-fluoro-3-(trifluoromethyl)phenyl)-3-(4-((5-(3-morpholinopropoxy)-2,3-dihydro-[1,4]dioxino[2,3-f]quinazolin-10-yl)oxy)phenyl)urea]: below 50 nM.

In turn, `COc1cccc(NC(=O)Nc2ccc(Oc3ncnc4cc(OC)c5c(c34)OCCO5)c(Cl)c2)c1` [Example 24, 1-(3-chloro-4-((5-methoxy-2,3-dihydro-[1,4]dioxino[2,3-f]quinazolin-10-yl)oxy)phenyl)-3-(3-methoxyphenyl)urea] came in with an IC50 below 50 nM.

The next assay addresses B-RAF (Homo sapiens (Human), UniProt P15056). The experiment in a line: Test of small molecule compounds for inhibiting the activity of B-RAF kinase (ADP-Glo).
Conditions: not given
A general note: ADP-Glo first removes unused ATP, then detects ADP through luciferase.
Compound `COc1cc2ncnc(Nc3ccc(NC(=O)Nc4cccc(S(C)(=O)=O)c4)c(Cl)c3)c2c2c1OCCO2` [Example 17, 1-(2-chloro-4-((5-methoxy-2,3-dihydro-[1,4]dioxino[2,3-f]quinazolin-10-yl)amino)phenyl)-3-(3-methylsulfonylphenyl)urea] displayed an IC50 above 1000 nM.

The target of another assay is C-RAF (Homo sapiens (Human), UniProt P04049). The experiment in a line: Test of small molecule compounds for inhibiting the activity of C-RAF kinase (ADP-Glo).
Chain of C-RAF (P04049 whole entry): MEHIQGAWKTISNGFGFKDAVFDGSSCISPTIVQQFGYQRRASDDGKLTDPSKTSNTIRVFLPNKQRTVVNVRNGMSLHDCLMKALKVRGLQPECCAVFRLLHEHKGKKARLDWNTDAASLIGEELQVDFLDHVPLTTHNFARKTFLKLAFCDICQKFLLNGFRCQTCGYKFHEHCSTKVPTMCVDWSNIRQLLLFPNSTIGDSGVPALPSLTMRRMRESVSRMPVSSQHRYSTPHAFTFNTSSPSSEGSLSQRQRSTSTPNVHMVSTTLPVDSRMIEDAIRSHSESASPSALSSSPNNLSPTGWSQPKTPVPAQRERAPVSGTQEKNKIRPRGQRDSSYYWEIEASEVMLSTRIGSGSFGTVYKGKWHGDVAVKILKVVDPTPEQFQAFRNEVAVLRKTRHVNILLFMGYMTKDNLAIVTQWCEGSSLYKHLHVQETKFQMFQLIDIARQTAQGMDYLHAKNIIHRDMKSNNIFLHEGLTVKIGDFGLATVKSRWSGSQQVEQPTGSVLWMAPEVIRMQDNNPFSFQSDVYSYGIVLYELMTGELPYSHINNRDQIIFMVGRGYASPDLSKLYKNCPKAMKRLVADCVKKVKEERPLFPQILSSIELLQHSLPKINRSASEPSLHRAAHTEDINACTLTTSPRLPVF
Conditions: not given
Compound `COc1cc2ncnc(Nc3ccc(NC(=O)Nc4cccc(S(C)(=O)=O)c4)c(Cl)c3)c2c2c1OCCO2` [Example 17, 1-(2-chloro-4-((5-methoxy-2,3-dihydro-[1,4]dioxino[2,3-f]quinazolin-10-yl)amino)phenyl)-3-(3-methylsulfonylphenyl)urea] yielded an IC50 above 1000 nM.

For the origin of these results see patent publication US10980809B2, “Urea-substituted aromatic ring-linked dioxane-quinazoline and -linked dioxane-quinoline compounds, preparation method therefor and use thereof” (BEIJING SCITECH-MQ PHARMACEUTICALS LIMITED, priority 2017, dated 2021).
